# Like-named read-outs stand apart in the source and are kept apart here. Where a SMILES comes first, the peptide text is derived from it. [ ]: non-standard residue; d: D form. The star is where a group is joined. ξ: configuration not given here. X1 = O=C(COc1c(-c2csc(N3CCOCC3)n2)ccc(F)c1F)NCCCCCCN*; Dip = N[C@H](C(=O)O)C(c1ccccc1)c1ccccc1; Chg = N[C@H](C(=O)O)C1CCCCC1; NMeA = CN[C@@H](C)C(=O)O; ξP = O=C(O)C1CCCN1
# What was measured:
# [1] = system: 22Rv1-Enz^R tumor xenografts; experiment: 22Rv1-Enz^R tumor xenograft in castrated nu/nu mice; type: in vivo; details: for tumor mass at 7 weeks: control approx. 1500 mm^3
# Method: In Vivo Study. To explore the therapeutic potential of Test Compound, 22Rv1, 22Rv1-Enz^R, VCaP, and VCaP-Enz^R are injected into nu/nu immunodeficient mice. When the resulting tumors reached an average size of 3 mm in diameter, all animals are surgically castrated via bilateral orchiectomy and divided into four groups of five mice each. For anesthesia, 3% isoflurane gas inhalation is used. Tumor size was measured using calipers and tumor volume was calculated using the formula: tumor volume=length×width^2[…].
# Mice are then treated daily with Test Compound with or without enzalutamide via the indicated route (intratumoral, intraperitoneal, or oral) for five to six weeks. At the end of the study, all animals are sacrificed and tumors are harvested and analyzed. Statistical significance is calculated using the Student's t-test for paired comparisons of experimental groups and, where appropriate, by Wilcoxon rank sum test, and by 2-way ANOVA. In vitro experiments are repeated a minimum of three times.
# The in vivo effects of the Compound of Example 16 are assessed in mice using enzalutamide-resistant CaP xenografts. First, 22Rv1-Enz^R tumor xenografts are established in nu/nu mice. Upon CaP xenograft formation (average diameter of 3 mm), mice are randomized into controls or treatment. Control mice are treated with 100 μl vehicle containing 10 mg/ml enzalutamide (n=5). The treatment group is injected with 100 μl vehicle containing 2.5 mg/ml Compound of Example 16 and 10 mg/ml enzalutamide daily directly into tumors (n=5) and tumor volumes were followed. […] Tumors are harvested and analyzed at the end of the study period.
# 22Rv1-Enz^R cells = experiment: 22Rv1-Enz^R cell proliferation (cell count, Experimental Example 3); type: cell-based, human
# Method: The human prostate cancer cell line, 22Rv1 has been reported to express a high level of AR-V7. Thus, 22Rv1 was seeded at 50,000 cells/well on a 24-well plate in quadruplicates and treated with test compound in concentrations ranging up to 20 μM for four days. Standard culture media was RPMI-1640 supplemented with 10% fetal bovine serum. The test compound initially was dissolved in DMSO at 50 mM. This stock solution was then diluted as needed for the indicated concentrations. At the end of the four-day period, cells were harvested using 1% trypsin and counted using an automated cell counter.
# (§1) Cell Culture. Human CaP cell lines, LNCaP, 22Rv1, VCaP, PC3, and DU145 are obtained from the American Type Culture Collection (ATCC) and maintained in the standard culture media: RPMI-1640 supplemented with 10% fetal bovine serum (FBS). LNCaP, 22Rv1, and VCaP are androgen-responsive cell lines, while PC3 and DU145 are not. To establish SAT resistant CaP cell lines, LNCaP, 22Rv1, and VCaP are treated continuously with 10-50 μM abiraterone, apalutamide, darolutamide, or enzalutamide. After 3-6 months, stable cell lines are established and designated as LNCaP-Abi^R, LNCaP-Apa^R, LNCaP-Daro^R, LNCaP-Enz^R, VCaP-Abi^R, VCaP-Apa^R, VCaP-Daro^R, VCaP-Enz^R, 22Rv1-Abi^R, 22Rv1-Apa^R, 22Rv1-Daro^R and 22Rv1-Enz^R. Unless otherwise specified, the standard culture media for these SAT-resistant cell lines included 10 μM of their respective SAT. For the proteasome inhibitor study, the inhibitors MG132 and Epoxomicin are used. The E3 ligase inhibitors Heclin, Nutlin 3a, Thalidomide, and VH298 are used. Cell lines obtained from ATCC are confirmed by checking their morphology using optical microscopy, establishing baselines for cell proliferation, verifying species of origin using isoenzymology, and characterizing the cell's DNA fingerprint using short tandem repeat (STR) profiling. Mycoplasma contamination is also assessed using a PCR based detection system.
# AR-V7 = molecular target: T1, AR-V7 (Homo sapiens, UniProt P10275); experiment: Immunoblot analysis of AR-V7 protein in CaP cells (Experimental Example 3); type: cell-based; parameters: endogenous in cells; host or cells: 22Rv1 (also VCaP, LNCaP and SAT-resistant sublines)
# T1 sequence (P10275 1-644 isoform P10275-3): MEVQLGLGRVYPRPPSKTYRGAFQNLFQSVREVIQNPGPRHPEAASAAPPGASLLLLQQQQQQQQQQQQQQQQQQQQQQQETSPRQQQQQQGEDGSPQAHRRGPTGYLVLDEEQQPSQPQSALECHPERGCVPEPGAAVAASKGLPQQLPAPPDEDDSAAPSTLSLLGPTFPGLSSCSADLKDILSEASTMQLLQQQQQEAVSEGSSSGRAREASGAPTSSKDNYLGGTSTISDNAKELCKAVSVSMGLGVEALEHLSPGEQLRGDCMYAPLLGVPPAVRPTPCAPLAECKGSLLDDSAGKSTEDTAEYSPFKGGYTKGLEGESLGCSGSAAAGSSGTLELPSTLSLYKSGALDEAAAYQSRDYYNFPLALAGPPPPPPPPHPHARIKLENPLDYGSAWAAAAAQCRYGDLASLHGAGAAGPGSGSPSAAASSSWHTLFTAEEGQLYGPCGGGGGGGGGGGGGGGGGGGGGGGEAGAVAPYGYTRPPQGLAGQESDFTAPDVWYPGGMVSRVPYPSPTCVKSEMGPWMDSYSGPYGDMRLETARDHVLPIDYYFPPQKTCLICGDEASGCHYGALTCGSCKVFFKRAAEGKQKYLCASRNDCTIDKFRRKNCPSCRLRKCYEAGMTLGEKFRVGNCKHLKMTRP
# Method: as §1
# Immunoblot Analysis. CaP cells are collected and lysed with the lysis buffer (20 mM Tris-HCl (pH 7.5), 150 mM NaCl, 1 mM Na2EDTA, 1 mM EGTA, 1% Triton, 2.5 mM sodium pyrophosphate, 1 mM beta-glycerophosphate, 1 mM Na3VO4, and 1 μg/ml leupeptin) containing 1 mM phenylmethylsulfonyl fluoride (PMSF). Cell lysates are then centrifuged and protein in the supernatant is quantified. After separating 25-50 μg of protein using SDS-PAGE, samples are incubated with AR-V7, GR, PR, ERα, AR-FL, ubiquitin, or β-actin antibodies. For AR-V7, AR-FL, PR, GR, and ERα immunoblots, primary antibody is diluted 1:1000 in 5% skim milk. For the β-actin immunoblot, 1:10000 diluted primary antibody is used. All membranes are incubated overnight at 4° C. Following the incubation with appropriate secondary antibody, immunoblots are analyzed using SuperSignal West Femto Maximum Sensitivity Substrate (ThermoFisher).
Structure (SMILES),"tumor volume at the end of 5 weeks ([1]; intratumoral daily, 100 μl of 2.5 mg/ml compound plus 10 mg/ml enzalutamide, control 800 mm^3)","22Rv1-EnzR cell count, % of control (22Rv1-Enz^R cells; 1 μM, 6 days)","AR-V7 degradation after pretreatment with proteasome inhibitors (AR-V7; 22Rv1, 2 hours MG-132 (5 μM) and epoxomicin (1 μM), then compound at 1 μM)","DC50 (AR-V7; 22Rv1, 24 hours, immunoblot, read-out: DC50, concentration at which 50% of AR-V7 degraded in 24 hours) [nM]","AR-V7 degradation after pretreatment with E3 ubiquitin ligase inhibitors (AR-V7; 22Rv1, two hours VH 298 20 μM, heclin 10 μM, nutlin 3a 0.1 μM or thalidomide 10 μM, then compound at 1 μM)","concentration from which AR-V7 protein expression is decreased (immunoblot) (AR-V7; 22Rv1 cells, 24 hours, 0, 0.01, 0.1, 1 and 10 μM tested) [µM]","AR-V7 protein expression level in parental and SAT-resistant 22Rv1, VCaP and LNCaP cells (AR-V7; immunoblot, effect on AR-V7 greater than on AR-FL)",tumor mass at 7 weeks ([1]; 0.83 mg/kg) [mm^3],tumor mass at 7 weeks ([1]; 8.3 mg/kg) [mm^3],"reduction of 22Rv1-Enz^R cell counts after pretreatment with MG-132 (22Rv1-Enz^R cells; 10 μM, 4 days, MG-132 (5 μM) pretreatment)","DC50 (AR-V7; 24 hours, immunoblot, read-out: DC50, concentration at which 50% of AR-V7 is degraded in 24 hours) [nM]"
"Cc1ncsc1-c1ccc([C@H](C)NC(=O)[C@@H]2C[C@@H](O)CN2C(=O)[C@@H](NC(=O)CCCCNC(=O)COc2c(-c3csc(N4CCOCC4)n3)ccc(F)c2F)C(C)(C)C)cc1 [Example 16, (2S,4R)-1-((S)-2-(5-(2-(2,3-difluoro-6-(2-morpholinothiazol-4-yl)phenoxy)acetamido)pentanamido)-3,3-dimethylbutanoyl)-4-hydroxy-N-((S)-1-(4-(4-methylthiazol-5-yl)phenyl)ethyl)pyrrolidine-2-carboxamide]",approximately 500 mm^3,about 45 % of control,completely blocked,370,only VH298 pretreatment inhibits AR-V7 degradation,0.1,decreases the protein expression levels,–,–,–,–
"CN[C@@H](C)C(=O)N[C@H](C(=O)N1CCCC1C(=O)N[C@H](C(=O)NCCCCCCNC(=O)COc1c(-c2csc(N3CCOCC3)n2)ccc(F)c1F)C(c1ccccc1)c1ccccc1)C1CCCCC1 (stereo partly drawn) [Example 26, (S)-1-((S)-2-cyclohexyl-2-((S)-2-(methylamino)propanamido)acctyl)-N-((S)-1-((6-(2-(2,3-difluoro-6-(2-morpholinothiazol-4-yl)phenoxy)acetamido)hexyl)amino)-1-oxo-3,3-diphenylpropan-2-yl)pyrrolidine-2-carboxamide] (H-[NMeA][Chg][ξP][Dip]-X1)",–,–,–,–,–,–,–,< 600,< 600,substantially blocked,< 50
